Measurements from ChEMBL document CHEMBL1156829 (Proc Natl Acad Sci U S A, 2008).

Legend:
[1] = NOVARTIS: Cytotoxicity against human hepatocellular carcinoma cell line (Huh7); assay type: toxicity, cell-based, Huh-7; conditions: Huh7 cells (hepatocellular carcinoma cell line)
Plasmodium falciparum [2] = experiment: NOVARTIS: Inhibition of Plasmodium falciparum W2 (drug-resistant) proliferation in erythrocyte-based infection assay; assay type: functional, organism-based; conditions: Plasmodium falciparum, W2; read-out: EC50
Plasmodium falciparum [3] = experiment: NOVARTIS: Inhibition of Plasmodium falciparum 3D7 (drug-susceptible) proliferation in erythrocyte-based infection assay; assay type: functional, organism-based; conditions: Plasmodium falciparum, 3D7

Row | SMILES | CC50 [1] [nM] | EC50 (Plasmodium falciparum [2]) [nM] | EC50 (Plasmodium falciparum [3]) [nM]
1 | COc1ccc(Nc2nc3nonc3nc2NN=Cc2cc(Cl)ccc2O)cc1 | > 3170 | 1620 | 1780
2 | CN(C)CCN1CCN(c2cccc(-c3cccc4cccnc34)n2)CC1 | 18800 | 55.2 | 18
3 | COc1ccc2ccccc2c1C1CC(=O)N2CN(Cc3ccco3)CSC2=C1C#N (centres undefined) | > 100000 | 2180 | 3320
4 | CCCCOc1ccc(C(O)C(CN2CCCCC2)c2ccccc2)cc1 (centres undefined) | 39300 | 591 | 835
5 | CC1CCC(C(C)C)C(OC(=O)Cn2c(-c3ccccc3)[n+](C)c3ccccc32)C1 (centres undefined) | > 11200 | 426 | 376
6 | O=C1C(NC2CCCC2)=C(N2CCCCC2)C(=O)c2ccccc21 | 10100 | 34.2 | 22.4
7 | COc1ccc(Br)cc1CNC(=O)CCCN1C(=O)COc2ccc(C)cc21 | > 100000 | 628 | 1880
8 | COCCCNc1nc2cc(OC)c(OC)cc2c2nc(-c3ccccc3)nn12 | > 100000 | 541 | 621
9 | Fc1ccc(Nc2nc(NCc3ccccc3)c3ccccc3n2)cc1 | 8870 | 58.6 | 75.5
10 | COc1cccc(-c2cn3c(n2)sc2cc(C(=O)NC4CCN(Cc5ccccc5)CC4)ccc23)c1 | > 100000 | 1980 | 513
11 | CCCCCN(CC(=O)Nc1cc(C(C)(C)C)nn1-c1ccc(Cl)c(Cl)c1)C(=O)c1cccc(OC)c1 | > 10000 | 992 | 597
12 | O=C1Nc2ccc(Br)cc2C12NCCc1c2[nH]c2ccccc12 (centres undefined) | 42200 | 111 | 198
13 | CC(=NNc1nc2ccccc2s1)c1ccc([N+](=O)[O-])cc1 | > 10000 | > 848 | > 965
14 | CCOC(=O)C1=C(C(=O)OCC)SC(=C2C(=S)C(C)(C)N(C(=O)c3cccc(F)c3)c3cc(C)ccc32)S1 | > 100000 | > 1400 | > 7520
15 | O=C1N(Cc2cc3ccccc3s2)CC2CN(Cc3ccsc3)CCN12 (centres undefined) | > 100000 | 153 | 107
16 | CCN(CC)Cc1ccc2c(NC(=O)c3ccc(C)s3)c(C(=O)OC)sc2n1 | 1240 | 1190 | 1230
17 | Brc1ccc(Nc2nc(NCC3CCCO3)c3ccccc3n2)cc1 (centres undefined) | 9780 | 349 | 468
18 | CCN(CC)c1ccc(NC(=O)C2Cc3ccccc3CN2S(=O)(=O)c2ccc(F)cc2)cc1 (centres undefined) | > 100000 | 4530 | 7430
19 | S=C(Nc1ccccc1)N1CCCN(c2nc3ccc(Cl)cc3s2)CC1 | > 86900 | 370 | 506
20 | Oc1nnc(SCc2nc3ccccc3s2)n1Cc1ccco1 | > 10000 | 268 | > 1460
21 | O=C(CC1N=C2c3ccccc3N=C(SCc3cccc(F)c3)N2C1=O)NCc1cccs1 (centres undefined) | > 100000 | 960 | 1190
22 | NCCNc1cc(-c2ccccc2)nc2ccccc12 | 23000 | 375 | 318
23 | O=C(NC(c1ccccc1)c1ccccc1)N(Cc1ccccc1)CC(O)CN(CCN1CCOCC1)S(=O)(=O)Cc1ccccc1 (centres undefined) | > 6820 | 162 | 115

Row | SMILES | CC50 [1] [nM] | EC50 (Plasmodium falciparum [2]) [nM] | EC50 (Plasmodium falciparum [3]) [nM]
24 | CC(CNC(=O)c1cn(C2CCCCC2)cc(C(=O)NC(C)(C)C)c1=O)c1ccccc1 (centres undefined) | > 10000 | < 15 | 174
25 | CC(=O)N(C1=C(N2CCC(C)CC2)C(=O)c2ccccc2C1=O)c1cccc(F)c1 | 66400 | 233 | 241
26 | COc1cc(NC(C)CCCN(Cc2ccccc2OC)C(=O)COCc2ccccc2)c2ncccc2c1 (centres undefined) | > 10000 | 689 | 1120
27 | Cc1cc(NC(=O)c2ccc(Br)cc2)no1 | > 10000 | 1910 | > 1250
28 | CCc1nnc2n1N(C(C)=O)C(c1ccc(Cl)c(Cl)c1)=C(C(C)=O)S2 | > 10000 | > 835 | > 1250
29 | Cc1ccc(CN=C(N)Nc2nc(C)cc(C)n2)cc1 | 11200 | 609 | 653
30 | CC(=O)N1CCOC1C(C)(C)C/C=C(\C)CCC=C(C)C (centres undefined) | > 14100 | > 1690 | 806
31 | COc1cc2c(-c3cc(Br)ccc3O)nc3c(c(Cc4ccccc4)nn3-c3ccccc3)c2cc1OC | > 100000 | 145 | 146
32 | CN(CCCNc1ccnc2cc(Cl)ccc12)C(=O)c1cc(C(F)(F)F)cc(C(F)(F)F)c1 | > 10000 | < 10.4 | 86.8
33 | COc1ccc(NC(=O)C2=C(C)NC(=S)NC2c2ccc(O)cc2)cc1 (centres undefined) | > 10000 | 342 | 1420
34 | CSc1ccc(NC(=O)N2CCCn3cccc3C2c2ccc(C(F)(F)F)cc2)cc1 (centres undefined) | > 100000 | 1810 | 3990
35 | CCOc1ccc2nc(C)c(CN(C)Cc3ccccc3)c(O)c2c1 | > 10000 | 969 | > 1250
36 | CC1=C(CC(=O)c2ccccc2)C(=O)c2ccccc2C1=O | 13800 | 300 | 2660
37 | C[n+]1cc(-c2ccc3cccc([N+](=O)[O-])c3n2)cc2ccccc21 | > 10000 | 450 | 364
38 | O=C(CN1CCN(C(=O)c2ccccc2)CC1)Nc1ccc(-c2nc3cc(NC(=O)CN4CCN(C(=O)c5ccccc5)CC4)ccc3o2)cc1 | > 100000 | 146 | 235
39 | COc1cc2nc(NCc3ccccc3)n3nc(-c4cccnc4)nc3c2cc1OC | > 100000 | 810 | > 12500
40 | CCOC(=O)C(=O)N1c2ccccc2-c2c(ssc2=S)C1(C)C | > 100000 | 73.5 | 91.6
41 | COc1cc(C(=O)NC(c2ccccc2Cl)c2cc(Cl)c3cccnc3c2O)cc(OC)c1OC (centres undefined) | > 100000 | 3470 | 6150
42 | Cc1cc(C)nc(NC(=N)Nc2cccc(O)c2)n1 | > 100000 | 2650 | 3920
43 | CCC(C)(O)C(=O)O[C@H]1C(=O)OC2CC3C(C)=C[C@H](O)[C@@H](O)[C@]3(C)C3C24CO[C@]3(O)[C@H](O)[C@H](C)C14 (some centres undefined) | > 6250 | 215 | 227
44 | O=C(CC1OC(=O)c2ccccc21)c1ccc(Cl)cc1 (centres undefined) | > 100000 | 342 | 717
45 | CCOc1ccc(C2C(C(=O)OC)=CNC=C2C(=O)OC)cc1Cl | > 100000 | 581 | 304
46 | COc1ccc(S(=O)(=O)N2CCC(c3nnc(-c4ccccc4OC)o3)CC2)cc1 | > 100000 | 1100 | 2300

Row | SMILES | CC50 [1] [nM] | EC50 (Plasmodium falciparum [2]) [nM] | EC50 (Plasmodium falciparum [3]) [nM]
47 | CN(C)c1ccc(-c2n(C)c3ccccc3[n+]2C)cc1 | > 100000 | 636 | 1120
48 | CCCC[C@@H](C)C(O)[C@H]1C(=O)N[C@@H](CC)C(=O)N(C)CC(=O)N(C)[C@@H](CC(C)C)C(=O)N[C@@H](C(C)C)C(=O)N(C)[C@@H](CC(C)C)C(=O)N[C@@H](C)C(=O)N[C@H](C)C(=O)N(C)[C@@H](CC(C)C)C(=O)N(C)[C@@H](CC(C)C)C(=O)N(C)[C@@H](C(C)C)C(=O)N1C (some centres undefined) | > 10000 | 251 | 859
49 | Cc1ccn2c(NC(C)(C)CC(C)(C)C)c(-c3ccccc3OC(=O)c3cccc(F)c3)nc2c1 | > 10000 | < 8.37 | 581
50 | CCCN(Cc1cc(OC)c2c(c1)OCO2)CC1CC1 | > 10000 | 566 | > 1720
51 | CN(CCCNc1ccnc2cc(Cl)ccc12)C(=O)C1CCC1 | 4570 | 93 | 192
52 | Cc1cc(/C=C2\SC(=Nc3ccccc3)NC2=O)c(C)n1-c1cccc([N+](=O)[O-])c1 | > 100000 | 897 | 682
53 | CCOc1ccc(C2c3[nH]c4ccccc4c3CCN2C(=O)c2cc3cc(Br)ccc3o2)cc1 (centres undefined) | > 100000 | 135 | 316
54 | O=c1c2ccccc2nc(/C=C/c2ccc([N+](=O)[O-])o2)n1-c1ccc(Br)cc1 | > 10000 | > 1640 | 902
55 | OC(CN1CCN(C/C=C/c2ccccc2)CC1)Cn1c2ccc(Br)cc2c2cc(Br)ccc21 (centres undefined) | > 10000 | 19.2 | 589
56 | CCOc1cccc2c(C)nc(NC(=N)N)nc12 | 56500 | 1540 | 358
57 | O=[N+]([O-])c1ccc(C=NN2CCN(Cc3ccccc3Cl)CC2)cc1 | > 100000 | > 1590 | > 7220
58 | O=C1NC(=S)N/C1=C\C=C\c1ccc([N+](=O)[O-])o1 | > 10000 | 2200 | > 881
59 | CCOC(=O)COc1ccc(C2NC(=S)NC(C)=C2C(C)=O)cc1OC (centres undefined) | > 100000 | 496 | 4030
60 | CC(C)c1ccc(NC(=O)C=Cc2ccccc2Cl)cc1 | 17500 | 45.6 | 102
61 | CC(C)C1c2[nH]c3ccccc3c2CCN1C(=O)CCl (centres undefined) | > 10000 | 377 | 498
62 | CCN(CC)c1nc(-c2cccnc2)nc2ccccc12 | 72200 | 1600 | 5640
63 | CCNc1ncnc2sc(C(=O)NCc3csc(C)n3)c(C)c12 | > 100000 | > 8590 | > 12500
64 | O=C(C1CCN(c2nnnn2-c2ccccc2)CC1)N1CCc2ccccc2C1 | > 100000 | 1790 | 1300
65 | CC(=NNC(=O)/C(=C\c1ccc([N+](=O)[O-])cc1)NC(=O)c1ccccc1)c1ccccn1 | > 100000 | 169 | 343
66 | O=C(c1ccc(Cl)cc1Cl)N1CCCC(C(F)(F)F)C1 (centres undefined) | > 100000 | 1400 | 663
67 | O=[N+]([O-])c1ccc(C=NNc2nc3ccccc3[nH]2)cc1 | > 100000 | 742 | 818
68 | CCOc1ccccc1-n1c(N)c(C(=O)Nc2ccc(C)cc2)sc1=S | > 100000 | 361 | 1320
